Measurements reported in US11958855B2, “Aurora kinase inhibitors for inhibiting mitotic progression” (Millennium Pharmaceuticals, Inc., priority 2006, dated 2024).
pIC50: −log10 of the molar value.

Key:
HCT116 cells = experiment: BrdU cell proliferation assay in HCT116 cells
Method: BrdU Cell Proliferation Assay
(§1) Cell proliferation of each cell line was measured using the cell proliferation enzyme-linked immunosorbent assay (ELISA), 5-bromo-2′-deoxyuridine (BrdU) colorimetric kit according to the manufacturer's recommendations. The assay measures cell proliferation by quantifying BrdU incorporation into replicating deoxyribonucleic acid (DNA). Briefly, each well was incubated with 10 μL of BrdU labeling reagent for 2 hours at 37° C. in a humidified cell culture chamber. After aspiration of the labeling media, the cells were fixed and denatured by adding 200 μL of ethanol to each well and incubated for 30 minutes at room temperature.
(§2) Concentration response curves were generated by calculating the decrease in optical density in samples treated with test compound relative to the DMSO-treated controls.

SW480 cells = experiment: BrdU cell proliferation assay in SW480 cells
Method: BrdU Cell Proliferation Assay
as §1, §2

[1] = test system: HCT-116 human colon carcinoma xenograft; experiment: In vivo tumor efficacy model, mouse HCT116 human colon carcinoma xenograft
Method: In Vivo Tumor Efficacy Model
HCT-116 (1×10^6) cells in McCoy's 5A medium were aseptically injected into the subcutaneous space in the right dorsal flank of female CD-1 nude mice (age 8 weeks, Charles River) using a 23-ga needle. Tumor volumes were calculated using standard procedures (0.5×(length×width^2)). […]. Doses (0.1 mL) were administered via 22 gauge oral gavage needle. Control animals received vehicle alone. Animals were dosed once daily for 21 days, and there were 10 animals in each group. Tumor size and body weight were measured twice per week. Compounds 1 and iii were well-tolerated at all doses in this study. […]

Aurora A = molecular target: T1, Aurora A (Homo sapiens, UniProt O14965); experiment: pT288 Aurora A autophosphorylation assay; type: cell-based; conditions: HCT-116 cells, 60 minutes treatment
T1 construct: Human tumor cells (HCT-116, obtained from ATCC) were grown on 96-well dishes; host or cells: HCT-116
T1 sequence (O14965 1-403): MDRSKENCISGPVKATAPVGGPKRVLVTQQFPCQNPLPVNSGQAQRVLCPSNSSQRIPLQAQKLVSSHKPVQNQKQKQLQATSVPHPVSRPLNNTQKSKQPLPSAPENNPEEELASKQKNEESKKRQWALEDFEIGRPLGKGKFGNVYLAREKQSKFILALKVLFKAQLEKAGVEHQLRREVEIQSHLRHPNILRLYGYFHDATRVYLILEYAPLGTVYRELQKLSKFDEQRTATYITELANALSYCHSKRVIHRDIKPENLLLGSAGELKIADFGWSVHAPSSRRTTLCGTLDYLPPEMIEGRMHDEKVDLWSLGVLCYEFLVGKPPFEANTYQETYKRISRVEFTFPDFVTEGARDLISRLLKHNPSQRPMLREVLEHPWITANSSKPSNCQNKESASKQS
Method: pT288 Aurora A Autophosphorylation Assay.
After incubation, the growth medium was replaced with 75 μL of fresh media and 25 μL of test compound was added to the cells in two-fold serial dilutions in dimethyl sulfoxide (DMSO) to achieve final concentrations ranging from 5 to 0.010 μM. Test compound at each dilution was added as replicates in 4 rows on the dish, and DMSO (20 nM) was added to each well of two columns for the untreated controls. The cells were treated with test compound or DMSO for 60 minutes at 37° C. in a humidified cell culture chamber. Cells were then fixed with 4% para-formaldehyde in phosphate-buffered saline (PBS) for 10 minutes, permeated with 0.5% Triton X-100 in PBS for 10 minutes, and washed twice in PBS.
Cells were visualized using a Discovery-1 High Content Imaging System. Images from nine or sixteen sites per well were captured at 200× magnification. Inhibition of Aurora A was determined by measuring pT288 (Aurora A autophosphorylation) fluorescent intensity within MPM2 immunopositive (mitotic) cells using Metamorph software. Concentration response curves were generated by calculating the decrease of pT288 fluorescent intensity in test compound-treated samples relative to the DMSO-treated controls, and growth inhibition (IC50) values were determined from those curves.

[2] = oral, once daily for 21 days, at each dose

## COc1cc(Nc2ncc3c(n2)-c2ccc(Cl)cc2C(c2c(F)cccc2OC)=NC3)ccc1C(=O)O [Compound 1, 4-{[9-chloro-7-(2-fluoro-6-methoxyphenyl)-5H-pyrimido[5,4-d][2]benzazepin-2-yl]amino}-2-methoxybenzoic acid]
HCT116 cells
  BrdU HCT116 LD50: 0.03 µM
SW480 cells
  BrdU SW480 LD50: 0.41 µM
[1]; mouse HCT116 human colon carcinoma xenograft model
  in vivo potency compared with compound iii: more potent than compound iii
[1]; mouse, in vivo, po
  tolerability: well-tolerated
[1]; [2]
  tumor growth delay (TGD) compared with compound iii: longer tumor growth delay
  tumor growth inhibition (TGI) compared with compound iii: greater tumor growth inhibition

## O=C(O)c1ccc(Nc2ncc3c(n2)-c2ccc(Cl)cc2C(c2ccccc2F)=NC3)cc1 [i]
HCT116 cells
  BrdU HCT116 LD50: 0.707 µM
SW480 cells
  BrdU SW480 LD50: 6.502 µM

## COc1cc(Nc2ncc3c(n2)-c2ccc(Cl)cc2C(c2ccccc2F)=NC3)ccc1C(=O)O [ii]
Aurora A
  pIC50: 6.82
HCT116 cells
  BrdU HCT116 LD50: 0.758 µM
SW480 cells
  BrdU SW480 LD50: 7.579 µM

## COc1cccc(F)c1C1=NCc2cnc(Nc3ccc(C(=O)O)cc3)nc2-c2ccc(Cl)cc21 [iii]
Aurora A
  pIC50: 7.74
HCT116 cells
  BrdU HCT116 LD50: 0.13 µM
SW480 cells
  BrdU SW480 LD50: 0.94 µM
[1]; oral, once daily for 21 days, all doses, female CD-1 nude mice
  tolerability: well-tolerated
